Results on six compounds are retold here after patent US9352074B2, “Antimicrobial examination gloves” (priority 2013, dated 2016).

One series deals with Staphylococcus aureus. Nature of the series: Zones of inhibition analysis of nitrile rubber film swatches on seeded agar. It counts as cell-based. To be noted: for antibacterial properties of polymer film (in words): incorporated into the nitrile rubber latex dip bath; for sides of the film exhibiting antibacterial activity (in words): PHMB in coagulation layer, triclosan in nitrile rubber. Here is the method:
Tests were carried out in order to assess which combination of biocidal agents were compatible with the glove manufacturing process and gave the best antimicrobial performance. Small rectangles of nitrile rubber latex were prepared by dipping clean microscope slides into warm coagulant solution, withdrawing them and drying them in an oven at 110° C. The slides were allowed to cool before dipping into the nitrile rubber latex dispersion. They were withdrawn, allowed to drain, and placed in an oven at 110° C. After cooling the layer of cured nitrile rubber was carefully removed from the microscope slide and sent for testing to determine their antimicrobial properties. Active ingredients were incorporated into the coagulant and nitrile polymer latex dispersion as appropriate.
The qualitative measure of their antibacterial performance was carried out by zones of inhibition analysis. The procedure used was for each sample to be assayed against Staphylococcus aureus, a bacterium commonly found on the skin of humans, by comparing their zones of inhibition on an agar preparation.
Seeded agar plates were prepared by adding 0.1 ml of an overnight broth culture into a clean, sterile petri dish, adding approximately 20 ml of an agar preparation that had been sterilised and cooled to 45° C. before use. The selective agar used was Tryptone Soy Agar. The challenge organism was mixed into the agar by gentle swirling to provide a homogeneous suspension. The plates were allowed to set for approximately one hour in a cool dry place.
Swatches of the polymer glove material were cut to approximately 2 cm square and placed on the seeded agar. The petri dishes were then placed in an incubator overnight at 37° C. Migration of the chemicals toxic to the challenge organisms creates a zone around the edge of the swatch where growth of the challenge organism is inhibited. The relative distance of the zone inhibition from the edge of the swatch for each organism gives an indication of the antibacterial efficacy of the products.

The conditions of series [1]: cited from earlier work.
Setting [2] is: Experiment 3, 0.1% added to coagulant solution.
Setting [3] is: Experiment 3, 1.0% added to coagulant solution.
Where [4] appears, read: Experiment 3, added to the calcium containing coagulant solution, agent on one side of the film.
The mark [5] stands for this setting: Experiment 2, 0.1% added to nitrile rubber.
Setting [6] is: Experiment 2, 0.1% in nitrile rubber, compared with control sample 12B/088.
Setting [7] is: Experiment 4, incorporated into the coagulation layer / coagulant solution.

As to `[H]/N=C(\N/C(=N/[H])NCCCCCCNC(=N)NC(=N)Nc1ccc(Cl)cc1)Nc1ccc(Cl)cc1` [Chlorhexidine], the “ZONE OF INHIBITION” value was 11 mm in the series on Staphylococcus aureus (setting [2]) and 18 mm in the series with Staphylococcus aureus (setting [3]). The “antibacterial performance (in words)” value in the series on Staphylococcus aureus (setting [4]) is “effective antibacterial performance”.
For `Cn1sc(Cl)cc1=O` [Methylchloroisothiazolinone], the “antibacterial effectiveness (in words)” value in the series with Staphylococcus aureus (Experiment 3, 0.5%) is “effective antibacterial agent”. Besides, the “ZONE OF INHIBITION” value in the series on Staphylococcus aureus (Experiment 3, 0.5% added to nitrile rubber) was determined as 15 mm.
For the compound `O=c1[nH]sc2ccccc12` [Proxel (BIT), 1,2-Benzisothiazol-3((2H)-one], the “ZONE OF INHIBITION” value with Staphylococcus aureus (Experiment 1, 0.15% added to nitrile rubber) came out at 9 mm; with Staphylococcus aureus (setting [5]) it was 15 mm. Besides, in the series on Staphylococcus aureus (Experiment 1), the “antibacterial properties of polymer film (in words)” value is given as “exhibited antibacterial properties”. Besides, the “antibacterial effectiveness (in words)” value in the series with Staphylococcus aureus (setting [6]) is “significantly more effective”.
Take `Oc1cc(Cl)ccc1Oc1ccc(Cl)cc1Cl` [Triclosan]: the “ZONE OF INHIBITION” value was 15 mm in the series with Staphylococcus aureus (Experiment 1, 0.05% added to nitrile rubber); 20 mm with Staphylococcus aureus (setting [5]); 18 mm in the series with Staphylococcus aureus (Experiment 2, 0.25% added to nitrile rubber); 12 mm with Staphylococcus aureus (Experiment 3, 0.05% added to nitrile rubber); 10 mm in the series with Staphylococcus aureus (setting [2]); 17 mm in the series with Staphylococcus aureus (Experiment 3, 0.1% added to nitrile rubber). Further, the “ZONE OF INHIBITION” value was 12 mm in the series with Staphylococcus aureus (Experiment 3, 0.5% added to coagulant solution) and 16 mm in the series with Staphylococcus aureus (Experiment 4, 0.1% added to nitrile rubber). Also, in the series with Staphylococcus aureus (Experiment 1), the “antibacterial properties of polymer film (in words)” value is recorded as “exhibited antibacterial properties”. Also, the “antibacterial effectiveness (in words)” value in the series with Staphylococcus aureus (setting [6]) is reported as “significantly more effective”; in the series on Staphylococcus aureus (Experiment 3, 0.05% in the nitrile rubber film (run 12C/064)) it was “effective”. The “antibacterial performance (in words)” value is on record as “exhibited antibacterial performance but was not as effective as when it was incorporated into the nitrile rubber layer” with Staphylococcus aureus (setting [4]) and “good antibacterial performance” in the series on Staphylococcus aureus (Experiment 4, incorporated into the nitrile rubber). Besides, the “sides of the film exhibiting antibacterial activity (in words)” value with Staphylococcus aureus (Experiment 4) was “both sides of the film exhibit antibacterial activity”. Besides, the solubility in water in series [1] is recorded as 0.0012 g per liter.
Consider Benzalkonium chloride [BTC 50E], for which the “ZONE OF INHIBITION” value in the series on Staphylococcus aureus (Experiment 3, 0.22% added to coagulant solution) is 14 mm; in the series with Staphylococcus aureus (setting [3]), 30 mm; in the series with Staphylococcus aureus (Experiment 4, 0.25% added to coagulant solution), 8 mm. The entries for the “antibacterial performance (in words)” value with Staphylococcus aureus (setting [4]) and in the series on Staphylococcus aureus (setting [7]) were “effective antibacterial performance” and “good results”, respectively.
As to Poly(hexamethylene biguanide) [PHMB], the “ZONE OF INHIBITION” value in the series with Staphylococcus aureus (Experiment 4, 0.3% added to coagulant solution, face down as normal) is given as 16 mm; in the series with Staphylococcus aureus (Experiment 4, 0.3% added to coagulant solution, film placed face up on the agar plate, biocide not on the side on the agar gel), 5 mm. Besides, the “sides of the film exhibiting antibacterial activity (in words)” value in the series with Staphylococcus aureus (Experiment 4) is recorded as “only one side of the polymer film exhibits antibacterial performance”. For the same compound, in the series on Staphylococcus aureus (setting [7]), the “antibacterial performance (in words)” value is on record as “good results”.
